Source: the supplement of paper PMC10307832

Assays:
Assay in all cases: relative viability (nuclei count vs DMSO), 5 days (fraction); higher = more cells survive
Selisistat + AZD7762 = compound: C1CC(C2=C(C1)C3=C(N2)C=CC(=C3)Cl)C(=O)N [Selisistat] + NC(=O)Nc1cc(-c2cccc(F)c2)sc1C(=O)N[C@H]1CCCNC1 [AZD7762] (partner 0.2 µM)
Outline: (§1)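 Lung cancer cell lines in 1536-well plates were dosed by pin tool the day after seeding, either with one drug alone or with a fixed anchor-drug dose plus five library-drug doses (not always all listed) in √10 steps. After 5 days, cells were fixed and their nuclei stained in one step (final 0.05% Triton X-100, 1% formaldehyde, 1 ug/ml Hoechst), then counted on 4× images. Relative viability is the nuclei count in treated wells divided by that in vehicle wells. Values are medians of duplicate plates.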

Selisistat + Tozasertib = compound: C1CC(C2=C(C1)C3=C(N2)C=CC(=C3)Cl)C(=O)N [Selisistat] + Cc1cc(Nc2cc(N3CCN(C)CC3)nc(Sc3ccc(NC(=O)C4CC4)cc3)n2)n[nH]1 [Tozasertib] (partner 0.1 µM)
Outline: as §1

Selisistat + Pemetrexed = compound: C1CC(C2=C(C1)C3=C(N2)C=CC(=C3)Cl)C(=O)N [Selisistat] + Nc1nc2[nH]cc(CCc3ccc(C(=O)N[C@@H](CCC(=O)O)C(=O)O)cc3)c2c(=O)[nH]1 [Pemetrexed] (partner 0.2 µM)
Outline: as §1

Serdemetan + Phenformin = compound: c1ccc2c(CCNc3ccc(Nc4ccncc4)cc3)c[nH]c2c1 [Serdemetan] + N=C(N)NC(=N)NCCc1ccccc1 [Phenformin] (partner 250 µM)
Outline: as §1

| Cell Line | relative viability (Selisistat + AZD7762; first compound 0.4 µM) | relative viability (Selisistat + AZD7762; first compound 1.265 µM) | relative viability (Selisistat + AZD7762; first compound 4 µM) | relative viability (Selisistat + AZD7762; first compound 12.65 µM) | relative viability (Selisistat + AZD7762; first compound 40 µM) | relative viability (Selisistat + Tozasertib; first compound 0.4 µM) | relative viability (Selisistat + Tozasertib; first compound 1.265 µM) | relative viability (Selisistat + Tozasertib; first compound 4 µM) | relative viability (Selisistat + Tozasertib; first compound 12.65 µM) | relative viability (Selisistat + Tozasertib; first compound 40 µM) | relative viability (Selisistat + Pemetrexed; first compound 0.4 µM) | relative viability (Selisistat + Pemetrexed; first compound 1.265 µM) | relative viability (Selisistat + Pemetrexed; first compound 4 µM) | relative viability (Selisistat + Pemetrexed; first compound 12.65 µM) | relative viability (Selisistat + Pemetrexed; first compound 40 µM) | relative viability (Serdemetan + Phenformin; first compound 0.04 µM) | relative viability (Serdemetan + Phenformin; first compound 0.1265 µM) | relative viability (Serdemetan + Phenformin; first compound 1.265 µM) | relative viability (Serdemetan + Phenformin; first compound 4 µM) | relative viability (Serdemetan + Phenformin; first compound 0.4 µM) |
| --- | --- | --- | --- | --- | --- | --- | --- | --- | --- | --- | --- | --- | --- | --- | --- | --- | --- | --- | --- | --- |
| HCC-827 | 0.206 | 0.154 | 0.187 | 0.279 | 0.24 | 0.418 | 0.429 | 0.444 | 0.389 | 0.392 | 0.258 | 0.266 | 0.266 | 0.256 | 0.251 | 0.415 | 0.406 | 0.314 | 0.366 | – |
| HOP-62 | 0.62 | 0.568 | 0.696 | 0.633 | 1.2 | 0.362 | 0.383 | 0.464 | 0.375 | 0.372 | 0.327 | 0.284 | 0.448 | 0.284 | 0.488 | 0.718 | 0.63 | 0.548 | 0.583 | 0.721 |
| LC-2-ad | 0.827 | 0.814 | 0.68 | 0.775 | 0.9 | 0.535 | – | 0.378 | 0.433 | 0.529 | 0.263 | 0.268 | 0.268 | 0.285 | 0.261 | 0.559 | 0.589 | 0.496 | 0.579 | 0.556 |
| LCLC-97TM1 | 0.187 | 0.208 | – | 0.342 | 0.183 | 0.207 | 0.216 | – | 0.231 | 0.212 | 0.153 | 0.177 | – | 0.155 | 0.206 | 0.455 | 0.382 | – | 0.41 | 0.463 |
| LCLC-103H | 0.807 | 0.744 | 0.853 | 0.751 | 0.749 | 0.435 | 0.515 | 0.494 | 0.47 | 0.565 | 0.42 | 0.473 | 0.469 | 0.509 | 0.529 | 0.336 | 0.352 | 0.349 | 0.322 | 0.343 |
| LK-2 | 0.434 | 0.265 | 0.323 | 0.296 | 0.434 | 0.155 | 0.189 | 0.197 | 0.176 | 0.18 | 0.271 | 0.32 | 0.232 | 0.265 | 0.252 | 0.318 | 0.64 | 0.215 | 0.335 | 0.423 |
| LOU-NH91 | 0.751 | 0.755 | 0.775 | 0.723 | 0.841 | 0.784 | 0.626 | 0.598 | 0.703 | 0.673 | 0.329 | 0.339 | 0.42 | 0.395 | 0.459 | 0.699 | 0.733 | 0.669 | 0.665 | 0.478 |
| NCI-H520 | – | – | – | – | – | 0.387 | 0.472 | 0.488 | 0.415 | 0.451 | 0.776 | 0.676 | 0.647 | 0.668 | 0.644 | 0.513 | 0.657 | – | 0.38 | 0.596 |
| NCI-H661 | – | – | – | – | – | 0.353 | 0.354 | 0.379 | 0.352 | 0.352 | 0.915 | 0.898 | 0.854 | 0.929 | 0.861 | 0.283 | 0.303 | 0.246 | 0.281 | 0.254 |
